“Also recorded” adds a separate entry of the source. Read-outs that look alike come from different tables or passages of the source.
Experiments:
seizures = assay: Anticonvulsant evaluation (ASP phase I / overall); type: in vivo, mice; conditions: for anticonvulsant activity / phase I evaluations: mouse, in vivo; for minimal effective dose: Mus musculus, ip, Phase I, read-out: ASP Classification; for activity compared with 12: substituted benzylamines; for activity compared with benzylamine counterpart: 27 vs 16, 28 vs 17, 29 vs 20
Procedure: The first phase of the ADD Program involved performing tests on male Carworth Farms #1 mice. […] Three tests were performed:
(§1) Maximal electroshock seizures are elicited with a 60-cycle alternating current of 50 mA intensity (5-7 times that necessary to elicit minimal electroshock seizures) delivered via corneal electrodes for 0.2 seconds. A drop of 0.9% saline is instilled in the eye prior to application of the electrodes in order to […].
The animal is observed for 30 minutes.

[1] = tested on: Maximal electroshock seizures; assay: MES maximal electroshock seizure test, mice ip; type: in vivo; conditions: for responders at 100 mg/kg / responders at 300 mg/kg / responders at 30 mg/kg: Mus musculus, ip; for responders at 100 mg/kg: read-out: MES, animals protected/tested (converted); for responders at 300 mg/kg / responders at 30 mg/kg: read-out: MES, animals protected/tested
Procedure: Three tests were performed:
1. MES--Electroshock Seizure Test
as §1

[2] = tested on: Subcutaneous Pentylenetetrazol seizure; assay: sc Met subcutaneous pentylenetetrazol (Metrazol) seizure test, mice; type: in vivo; conditions: for responders at 100 mg/kg / responders at 300 mg/kg / responders at 30 mg/kg: Mus musculus, sc; for responders at 100 mg/kg / responders at 300 mg/kg: read-out: scMet, animals protected/tested (converted); for scMet evaluation: Phase I; for responders at 30 mg/kg: read-out: scMet, animals protected/tested
[3] = tested on: Maximal electroshock seizures; assay: Phase VI oral MES test, rats; type: in vivo; conditions: oral; for responders at 50 mg/kg: Rattus norvegicus, read-out: MES, animals protected/tested (converted); for responders at 50 mg/kg / MES, animals protected/tested: 50 mg/kg
From the text: as §1
(§2) This oral screen is designated as phase VI.

in vivo = conditions: rat, po; for Tox, animals toxic/tested: 50 mg/kg
From the text: as §2

[4] = 0.5 h, 300 mg/kg, 30 min, second trial

Structure (SMILES)	anticonvulsant activity (seizures)	responders at 100 mg/kg ([1]; 0.5 h, 100 mg/kg, 30 min) [%]	responders at 300 mg/kg ([1]; 0.5 h, 300 mg/kg, 30 min) [%]	responders at 100 mg/kg ([1]; 4 h, 100 mg/kg, 4 h) [%]	responders at 300 mg/kg ([1]; 4 h, 300 mg/kg, 4 h) [%]	responders at 100 mg/kg ([2]; 0.5 h, 100 mg/kg, 30 min) [%]	responders at 300 mg/kg ([2]; 0.5 h, 300 mg/kg, 30 min) [%]	responders at 100 mg/kg ([2]; 4 h, 100 mg/kg, 4 h) [%]	responders at 300 mg/kg ([2]; 4 h, 300 mg/kg, 4 h) [%]	minimal effective dose (seizures) [mg/kg]	further results
O=C1C=C(NCc2ccccc2)CC(c2ccccc2)C1C(=O)NCc1ccccc1 (stereo not drawn) [Compound 11]	inactive	–	–	–	–	–	–	–	–	–	–
COC(=O)C1C(=O)C=C(NCCc2ccccc2)CC1(C)C (stereo not drawn) [Compound 14]	–	33.3	100	0	0	0	0	0	0	< 100	–
COC(=O)C1C(=O)C=C(NCc2ccc(Cl)cc2)CC1C (stereo not drawn) [Compound 16]	–	–	100	–	100	–	100	–	0	> 100	responders at 300 mg/kg [2, 4]: 0%; scMet evaluation [2]: spurious results; activity compared with 12 (seizures): only a slight modification in activity
COC(=O)C1C(=O)C=C(NCc2ccc(C)cc2)CC1C (stereo not drawn) [Compound 17]	inactive	–	–	–	–	–	–	–	–	–	activity compared with 12 (seizures): only a slight modification in activity
COC(=O)C1C(=O)C=C(NCc2ccc(C(=O)O)cc2)CC1C (stereo not drawn) [Compound 18]	inactive	–	–	–	–	–	–	–	–	–	activity compared with 12 (seizures): only a slight modification in activity
CC1(C)CC(=O)C=C(NCc2ccccc2)C1 [Compound 19]	potent anticonvulsants	33.3	100	0	100	0	0	0	0	< 100	–
COC(=O)C1C(=O)C=C(NCc2ccc([N+](=O)[O-])cc2)CC1C (stereo not drawn) [Compound 20]	–	–	–	–	–	–	–	–	–	–	activity compared with 12 (seizures): only a slight modification in activity
COC(=O)C1C(=O)C=C(NCc2ccc(F)cc2)CC1C (stereo not drawn) [Compound 21]	–	–	0	–	100	–	0	–	0	> 100	ED50 ([3]; Phase VI, rat): 49.3 mg/kg; responders at 50 mg/kg ([3]; 0.5 h, 0.50 h): 50%; responders at 50 mg/kg ([3]; 0.25 h): 50%; responders at 50 mg/kg ([3]; 1.00 h): 25%; responders at 50 mg/kg ([3]; 2.00 h): 50%; responders at 50 mg/kg ([3]; 4.00 h): 75%; activity in Phase II evaluation ([1]; substituted benzylamines): significant activity; TD50 (in vivo): > 230 mg/kg; selectivity ratio (in vivo): 4.7; Tox, animals toxic/tested (in vivo): 0/4; activity compared with 12 (seizures): only a slight modification in activity
COC(=O)C1C(=O)C=C(Nc2ccccc2)CC1C (stereo not drawn) [Compound 24]	activity was lost; also recorded: inactive	–	–	–	–	–	–	–	–	–	–
COC(=O)C1C(=O)C=C(NNc2ccccc2)CC1C (stereo not drawn) [Compound 25]	–	–	100	–	0	–	100	–	0	> 100	responders at 300 mg/kg [2, 4]: 0%; scMet evaluation [2]: spurious results
CCc1ccc(NC2=CC(=O)C(C(=O)OC)C(C)C2)cc1 (stereo not drawn) [Compound 26]	anticonvulsant activity was observed	66.7	–	0	–	0	–	0	–	< 100	–
COC(=O)C1C(=O)C=C(Nc2ccc(C)cc2)CC1C (stereo not drawn) [Compound 28]	anticonvulsant activity was observed	–	100	–	0	–	0	–	0	< 100	responders at 30 mg/kg ([1]; 0.5 h, 30 min): 0%; responders at 30 mg/kg ([1]; 4 h, 4 h): 0%; responders at 30 mg/kg ([2]; 0.5 h, 30 min, second trial): 0%; responders at 30 mg/kg ([2]; 0.5 h, 30 min): 100%; responders at 30 mg/kg ([2]; 4 h, 4 h): 0%; scMet evaluation [2]: spurious results; activity compared with benzylamine counterpart (seizures): activity is enhanced in all cases
COC(=O)C1C(=O)C=C(Nc2ccc([N+](=O)[O-])cc2)CC1C (stereo not drawn) [Compound 29]	–	0	–	0	–	100	–	0	–	< 100	responders at 100 mg/kg ([2]; 0.5 h, 100 mg/kg, 30 min, second trial): 0%; activity compared with benzylamine counterpart (seizures): activity is enhanced in all cases
COC(=O)C1C(=O)C=C(Nc2cc(C)ccc2OC)CC1C (stereo not drawn) [Compound 30]	anticonvulsant activity was observed	–	–	–	–	–	–	–	–	–	–
COC(=O)C1C(=O)C=C(Nc2cc(OC)ccc2OC)CC1C (stereo not drawn) [Compound 31, methyl 4-(2', 5'-dimethoxy)-phenylamino-6-methyl-2-oxo-cyclohex-3-en-1-oate]	anticonvulsant activity was observed	33.3	100	0	0	0	0	0	0	< 100	–
COC(=O)C1C(=O)C=C(Nc2ccc(C(=O)O)cc2)CC1C (stereo not drawn) [Compound 32]	comparable to inactive 18 in the benzylamine series	–	–	–	–	–	–	–	–	–	–
COC(=O)C1C(=O)C=C(NN2CCOCC2)CC1C (stereo not drawn) [Compound 33]	–	–	–	–	–	–	–	–	–	–	phase I evaluations (seizures): neither was active
COC(=O)C1C(=O)C=C(NN2CCOCC2)CC1C (stereo not drawn) [Compound 34]	–	–	–	–	–	–	–	–	–	–	phase I evaluations (seizures): neither was active
COC(=O)C1C(=O)C=C(Nc2ccc(O)cc2)CC1C (stereo not drawn) [Compound 35]	inactive	–	–	–	–	–	–	–	–	–	–
COC(=O)C1C(=O)C=C(NCCc2ccccc2)CC1C (stereo not drawn) [Compound 109]	–	66.7	100	0	0	0	0	0	0	< 100	responders at 50 mg/kg ([3]; 0.5 h, 0.50 h): 50%; responders at 50 mg/kg ([3]; 0.25 h): 100%; responders at 50 mg/kg ([3]; 1.00 h): 50%; responders at 50 mg/kg ([3]; 2.00 h): 25%; responders at 50 mg/kg ([3]; 4.00 h): 25%; Tox, animals toxic/tested (in vivo): 0/4
COC(=O)C1C(=O)C=C(Nc2ccc(F)cc2)CC1C (stereo not drawn) [Compound 112]	–	66.7	100	0	100	0	0	0	0	< 100	responders at 50 mg/kg ([3]; 0.5 h, 0.50 h): 100%; responders at 50 mg/kg ([3]; 0.25 h): 100%; responders at 50 mg/kg ([3]; 1.00 h): 100%; responders at 50 mg/kg ([3]; 2.00 h): 100%; responders at 50 mg/kg ([3]; 4.00 h): 100%; Tox, animals toxic/tested (in vivo): 0/4
CC1(C)CC(=O)C=C(Nc2ccc(C(C)(C)C)cc2)C1 [Compound 143]	–	0	0	0	0	20	20	0	0	< 100	–
O=C1C=C(NCc2ccccc2)CCC1 [Compound 153]	–	–	–	–	–	–	–	–	–	–	MES, animals protected/tested ([3]; 0.25 h): 0/4; MES, animals protected/tested ([3]; 0.50 h): 2/4; MES, animals protected/tested ([3]; 1.00 h): 3/4; MES, animals protected/tested ([3]; 2.00 h): 3/4; MES, animals protected/tested ([3]; 4.00 h): 1/4; MES, animals protected/tested ([1]; 100 mg/kg, 30 min): 3/3; MES, animals protected/tested ([1]; 100 mg/kg, 4 h): 0/3; MES, animals protected/tested ([1]; 300 mg/kg, 30 min): 1/1; MES, animals protected/tested ([1]; 300 mg/kg, 4 h): 1/1; scMet, animals protected/tested ([2]; 100 mg/kg, 30 min): 0/1; scMet, animals protected/tested ([2]; 100 mg/kg, 4 h): 0/1; scMet, animals protected/tested ([2]; 300 mg/kg, 30 min): 0/1; scMet, animals protected/tested ([2]; 300 mg/kg, 4 h): 0/1
